Entries after “also recorded” stand apart in the source; their conditions may differ. Where two headings read alike, the source gives them in different places.

Data set [1] relates to receptor binding sites with a high affinity for serotonin (5-HT1). Briefly: Displacement, by the derivatives S-CM-R, of the high affinity binding of [3H]5-HT in rat brain sections. The note with it: 2 nM [3H]5-HT. The source says:
The distribution of the receptor binding sites with a high affinity for serotonin (5-HT1) is heterogeneous in the central nervous system of the rat (Pazos and Palacios, Brain Research, 346, 1985, p. 205-230; Segu et al., Brain Research, 384, 1986, p. 205-217). Furthermore, the content of subtypes of 5-HT1 sites varies according to the anatomical structure in question.
The protocol for preparing the brain sections is common to all the studies which follow. The animals are decapitated after anaesthesia with chloral hydrate (400 mg/kg of gross weight). The brains are quickly removed from the skull and frozen by immersion in isopentane cooled by liquid nitrogen. 20 μm sections, prepared in a cryostat at -20° C., are mounted on gelatin-coated slides and stored at -20° C.
The sections are preincubated for 1 hour at 4° C. in a Krebs solution (NaCl 118 mM; KCl 4.8 mm; CaCl2 1.2 mM; MgCl2 1.2 mM; Tris-HCl 15 mM, pH 7.4) in order to remove the endogenous ligands.
1. Displacement, by the derivatives S-CM-R, of the high affinity binding of serotonin in rat brain sections
The incubations take place for 60 minutes at 20° C. in a Krebs solution containing 10 μM pargyline, 5.7.10^-4 M ascorbic acid, 2 nM [^3 H]5-HT (NEN, As=30 Ci/mmol) and increasing concentrations of derivatives S-CM-R. The non-specific binding is determined on homothetic sections under the same conditions, but in the presence of 10^-5 M 5-HT.
After incubation, the sections are rinsed three times for 20 seconds in distilled water and dried by a stream of hot air. The sections are affixed to a film (Amersham) for 6 weeks in the presence of a standard ([^3 H] microscale, Amersham). The films are developed for 6 minutes with Kodak D19, rinsed and fixed with AL4 (Kodak). Quantitative analysis of the autoradiographs is performed with an image analysis system (Segu et al., J. Neurosci. Methods, 31, 1990, p. 197-208).

Data set [2] deals with T1, 5-HT1D sites (Macaca mulatta, UniProt F6SFA9).
T1 construct: The right hemisphere is cut out and frozen by isopentane cooled in liquid nitrogen; from tissue; host or cells: rhesus monkey brain sections (right hemisphere, 10 μm, frozen), substantia nigra
Briefly: Displacement of S-CM-G[125I]TNH2 binding with serotonin in monkey brain sections. The arrangement: species or system monkey (Macacca mulatta n.). As to conditions: displacement of 0.02 nM S-CM-G[125I]TNH2, read-out: IC50 (concentration which inhibits 50% of the binding). The method, then: (§1) A male monkey (Macacca mulatta n.) weighing 8 kg was sacrificed by means of an overdose of barbiturates and exsanguination. […] The right hemisphere is cut out and frozen by isopentane cooled in liquid nitrogen. The block is stored at -20° C. 10 μm thick sections are prepared in a cryostat at -20° C. and placed on gelatin-coated slides (Segu et al., 1990, J. Neurosci. Meth., 31, 197). They are stored at -20° C. until required.
(§2) The sections are preincubated for 1 h at 4° C. in a Krebs solution (mM: NaCl, 118; KCl, 4.5; CaCl2, 1.2; MgCl2, […]; Tris, 15; pH 7.4) in order to remove the endogenous ligands. They are then incubated at 20° C. for 60 minutes in a solution containing 10^-5 M pargyline, 57 mM ascorbic acid, 10 g/l of bovine serum albumin and 0.02 nM S--CM-G[^125 I]TNH2, alone or in the presence of increasing concentrations of serotonin. Some of the sections are incubated under identical conditions except that the radioactive probe is replaced either with 2 nM [^3 H]5-HT, or with 2 nM [^3 H]5-HT in the presence of 100 nM 8-hydroxy-2-[di-N-propylamino]tetralin (8-OH-DPAT) and 100 nM mesulergin, or with 1 nM [^3 H]8-OH-DPAT. After rinsing 2 x for 1 minute in distilled water, the sections are dried.
(§3) The slides are affixed to a tritium-sensitive film for 8 days. […] The autoradiographs are quantified with a video system for image analysis (Segu et al., 1990).

Data set [3] in a line: Passage across the blood-brain barrier after intracardiac injection (brain autoradiography). In kind it is in vivo, mice and guinea-pigs. As to conditions: intracardiac injection; 10 minutes; conclusion. On the procedure:
2 mice and 2 guinea-pigs are deeply anaesthetized with chloral hydrate (intraperitoneal injection of 0.12 ml of a 35% solution per 100 g of body weight).
The mice and guinea-pigs receive intracardiac injections of 200 μl and 1.5 ml, respectively, of S--CM-G[^125 I]TNH2.
After 10 minutes, the animals, still under deep anaesthesia, are decapitated and the brains are frozen and stored as indicated in Example 1.
Sections are prepared and autoradiography is carried out as described in Example 1.

The target in another data set is T2, 5-HT1A sites (Macaca mulatta, UniProt F7GIU0).
T2 sequence (F7GIU0 1-421): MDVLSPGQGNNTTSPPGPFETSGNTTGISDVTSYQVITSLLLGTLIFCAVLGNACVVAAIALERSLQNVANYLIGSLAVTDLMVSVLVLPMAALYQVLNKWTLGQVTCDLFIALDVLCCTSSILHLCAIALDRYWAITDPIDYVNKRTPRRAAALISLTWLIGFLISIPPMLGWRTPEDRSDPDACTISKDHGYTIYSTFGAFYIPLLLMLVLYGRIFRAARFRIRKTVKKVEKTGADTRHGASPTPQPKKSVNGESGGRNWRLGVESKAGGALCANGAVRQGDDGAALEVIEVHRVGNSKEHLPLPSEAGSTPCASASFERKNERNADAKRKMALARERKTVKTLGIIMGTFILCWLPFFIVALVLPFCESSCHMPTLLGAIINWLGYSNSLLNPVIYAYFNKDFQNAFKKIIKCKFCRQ
Briefly: Labelling of hippocampus in monkey brain sections (autoradiography). In kind it is binding, monkey (Macacca mulatta n.). The method, then:
as §1, §2, §3

The subject of data set [4] is 5-HT1D sites. Briefly: Labelling of substantia nigra in monkey brain sections (autoradiography). In kind it is binding, monkey (Macacca mulatta n.). The note with it: 1 nM [3H]8-OH-DPAT. On the procedure:
(§4) A male monkey (Macacca mulatta n.) weighing 8 kg was sacrificed by means of an overdose of barbiturates and exsanguination. […] The right hemisphere is cut out and frozen by isopentane cooled in liquid nitrogen. The block is stored at -20° C. […] They are stored at -20° C. until required.
(§5) Some of the sections are incubated under identical conditions except that the radioactive probe is replaced either with 2 nM [^3 H]5-HT, or with 2 nM [^3 H]5-HT in the presence of 100 nM 8-hydroxy-2-[di-N-propylamino]tetralin (8-OH-DPAT) and 100 nM mesulergin, or with 1 nM [^3 H]8-OH-DPAT. After rinsing 2 x for 1 minute in distilled water, the sections are dried.
(§6) The slides are affixed to a tritium-sensitive film for 8 days. The film is developed for 6 minutes in D19, rinsed and fixed.

The target in data set [5] is T1, 5-HT1D sites. Described as above. In kind it is binding, monkey (Macacca mulatta n.). On the procedure: as §4, §5, §6
[6] abbreviates: 60 min at 20° C, single IC50, read-out: IC50 (displacement of specific binding of [3H]5-HT).
[7] abbreviates: two-phase process, first site, read-out: IC50 for the first site (displacement of [3H]5-HT).
Where [8] appears, read: two-phase process, second site, read-out: IC50 for the second site (displacement of [3H]5-HT).

T1 sequence (F6SFA9 1-390): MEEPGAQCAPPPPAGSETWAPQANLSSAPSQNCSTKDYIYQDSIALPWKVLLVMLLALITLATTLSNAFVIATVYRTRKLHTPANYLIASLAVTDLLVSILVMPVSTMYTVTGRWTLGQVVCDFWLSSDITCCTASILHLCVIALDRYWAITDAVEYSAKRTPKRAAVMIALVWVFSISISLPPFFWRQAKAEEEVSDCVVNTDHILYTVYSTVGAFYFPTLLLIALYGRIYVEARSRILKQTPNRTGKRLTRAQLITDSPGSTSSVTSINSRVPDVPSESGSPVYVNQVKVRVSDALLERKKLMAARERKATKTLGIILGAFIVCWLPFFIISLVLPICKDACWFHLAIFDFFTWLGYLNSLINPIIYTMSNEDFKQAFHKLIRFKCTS

For `NCCc1c[nH]c2ccc(O)cc12` [5-HT, reference compound], in data set [1], the “phases of displacement of [3H]5-HT specific binding” value (“phases” below) is listed as “one-phase process”. In addition, the IC50 in data set [1] (setting [6]) was 2 nM; at 5-HT1D sites [2] it was approximately 5 nM.

On to `NCCc1c[nH]c2ccc(OCC(=O)O)cc12` [S--CM], for which the IC50 in data set [1] (setting [6]) came out at 1000 nM.

With `NCCc1c[nH]c2ccc(OCC(=O)NCC(=O)N[C@@H](Cc3ccc(O)cc3)C(N)=O)cc12` [S-CM-GTNH2, tryptamine-5-O-carboxymethylglycyltyrosinamide], the “phases” value in data set [1] was “two-phase process”. The IC50 is 20 nM in data set [1] (setting [7]) and 400 nM in data set [1] (setting [8]). For the same compound, the “passage across the blood-brain barrier” value in data set [3] is listed as “unable to pass through the blood-brain barrier”.

Take `NCCc1c[nH]c2ccc(OCC(=O)N[C@@H](Cc3ccc(O)cc3)C(=O)NCC(N)=O)cc12` [S-CM-Tyr-GlyNH2]: in data set [1], the “phases” value was “two-phase process”. The IC50 in data set [1] (setting [7]) is 20 nM; in data set [1] (setting [8]) it was 400 nM.

In the case of `CCCN(CCC)C1CCc2cccc(O)c2C1` (stereo not shown) [[^3 H]8-OH-DPAT, 8-hydroxy-2-[di-N-propylamino]tetralin], the “labelling of the hippocampus” value at 5-HT1A sites (1 nM [3H]8-OH-DPAT) is given as “intense labelling; also recorded: showing the 5-HT1A sites exclusively located in the hippocampus”. Also, the “labelling of the substantia nigra” value in the data set on 5-HT1D sites [4] is listed as “not the substantia nigra”.

As for [^3 H]5-HT [reference compound], at 5-HT1A sites (2 nM [3H]5-HT), the “labelling of the hippocampus” value is “substantial labelling; also recorded: showing the total 5-HT1 sites in the hippocampus (H)”. For the same compound, the “labelling of the substantia nigra” value on 5-HT1D sites [5] (2 nM [3H]5-HT) is “substantial labelling; also recorded: showing the total 5-HT1 sites in the hippocampus (H) and the substantia nigra (SN)”; on 5-HT1D sites [5] (2 nM [3H]5-HT in the presence of 100 nM 8-OH-DPAT and 100 nM mesulergin), “strong reaction with the substantia nigra; also recorded: showing the 5-HT1B sites virtually exclusively located in "the substantia nigra”.
